Where “and” joins values, the source holds several entries; their conditions need not be identical. Identical values can stand only once.
System: HCC1937
Assay: drug sensitivity score (DSS), CellTiter-Blue viability (DSS (AUC-based score)); higher = stronger viability inhibition; extreme values may be limits of the assay
Conditions: incubation time: 72 h
Experimental: (§1)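 DSRT with the CellTiter-Blue (resazurin reduction) viability readout, fluorescence 560/590 nm, 72 h incubation. Plates were normalised to DMSO and benzethonium chloride controls. DSS is computed from the area under the fitted dose-response curve (5 or 9 concentrations).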

SMILES | drug sensitivity score
C[C@]12C=CC(=O)C=C1CC[C@@H]1[C@@H]2[C@@H](O)C[C@@]2(C)[C@H]1CC[C@]2(O)C(=O)CO [Prednisolone] | 0
CC[C@@]1(O)C(=O)OCc2c1cc1n(c2=O)Cc2cc3c(CN(C)C)c(O)ccc3nc2-1 [Topotecan] | 13.2

System: SK-BR-3
Assay: as above
Conditions: incubation time: 72 h
Experimental: as §1

SMILES | drug sensitivity score
Nc1ccccc1NC(=O)c1ccc(CNc2nccc(-c3cccnc3)n2)cc1 [Mocetinostat] | 10.9
COc1nc(N)nc2c1ncn2[C@@H]1O[C@H](CO)[C@@H](O)[C@@H]1O [Nelarabine] | 0
Cc1ccc(Nc2nccc(N(C)c3ccc4c(C)n(C)nc4c3)n2)cc1S(N)(=O)=O [Pazopanib] | 0
O=C(CCBr)N1CCN(C(=O)CCBr)CC1 [Pipobroman] | 0
c1cc(CN2CCCNCCNCCCNCC2)ccc1CN1CCCNCCNCCCNCC1 [Plerixafor] | 0
C[C@]12C=CC(=O)C=C1CC[C@@H]1[C@@H]2[C@@H](O)C[C@@]2(C)[C@H]1CC[C@]2(O)C(=O)CO [Prednisolone] | 0
CC[C@@]1(O)C(=O)OCc2c1cc1n(c2=O)Cc2cc3c(CN(C)C)c(O)ccc3nc2-1 [Topotecan] | 11.3

System: CAL-120
Assay: as above
Conditions: incubation time: 72 h
Experimental: as §1

SMILES | drug sensitivity score
Nc1ccccc1NC(=O)c1ccc(CNc2nccc(-c3cccnc3)n2)cc1 [Mocetinostat] | 13.4
COc1nc(N)nc2c1ncn2[C@@H]1O[C@H](CO)[C@@H](O)[C@@H]1O [Nelarabine] | 0
Cc1ccc(Nc2nccc(N(C)c3ccc4c(C)n(C)nc4c3)n2)cc1S(N)(=O)=O [Pazopanib] | 0
O=C(CCBr)N1CCN(C(=O)CCBr)CC1 [Pipobroman] | 0
c1cc(CN2CCCNCCNCCCNCC2)ccc1CN1CCCNCCNCCCNCC1 [Plerixafor] | 0
C[C@]12C=CC(=O)C=C1CC[C@@H]1[C@@H]2[C@@H](O)C[C@@]2(C)[C@H]1CC[C@]2(O)C(=O)CO [Prednisolone] | 0
CC[C@@]1(O)C(=O)OCc2c1cc1n(c2=O)Cc2cc3c(CN(C)C)c(O)ccc3nc2-1 [Topotecan] | 8.72

System: DU-4475
Assay: as above
Conditions: incubation time: 72 h
Experimental: as §1

SMILES | drug sensitivity score
Nc1ccccc1NC(=O)c1ccc(CNc2nccc(-c3cccnc3)n2)cc1 [Mocetinostat] | 12.9
COc1nc(N)nc2c1ncn2[C@@H]1O[C@H](CO)[C@@H](O)[C@@H]1O [Nelarabine] | 0
Cc1ccc(Nc2nccc(N(C)c3ccc4c(C)n(C)nc4c3)n2)cc1S(N)(=O)=O [Pazopanib] | 0
O=C(CCBr)N1CCN(C(=O)CCBr)CC1 [Pipobroman] | 0
c1cc(CN2CCCNCCNCCCNCC2)ccc1CN1CCCNCCNCCCNCC1 [Plerixafor] | 0
C[C@]12C=CC(=O)C=C1CC[C@@H]1[C@@H]2[C@@H](O)C[C@@]2(C)[C@H]1CC[C@]2(O)C(=O)CO [Prednisolone] | 0
CC[C@@]1(O)C(=O)OCc2c1cc1n(c2=O)Cc2cc3c(CN(C)C)c(O)ccc3nc2-1 [Topotecan] | 11.1

System: CAL-85-1
Assay: as above
Conditions: incubation time: 72 h
Experimental: as §1

SMILES | drug sensitivity score
Nc1ccccc1NC(=O)c1ccc(CNc2nccc(-c3cccnc3)n2)cc1 [Mocetinostat] | 8.63
COc1nc(N)nc2c1ncn2[C@@H]1O[C@H](CO)[C@@H](O)[C@@H]1O [Nelarabine] | 0
Cc1ccc(Nc2nccc(N(C)c3ccc4c(C)n(C)nc4c3)n2)cc1S(N)(=O)=O [Pazopanib] | 0
O=C(CCBr)N1CCN(C(=O)CCBr)CC1 [Pipobroman] | 0
c1cc(CN2CCCNCCNCCCNCC2)ccc1CN1CCCNCCNCCCNCC1 [Plerixafor] | 0
C[C@]12C=CC(=O)C=C1CC[C@@H]1[C@@H]2[C@@H](O)C[C@@]2(C)[C@H]1CC[C@]2(O)C(=O)CO [Prednisolone] | 0
CC[C@@]1(O)C(=O)OCc2c1cc1n(c2=O)Cc2cc3c(CN(C)C)c(O)ccc3nc2-1 [Topotecan] | 3.4

System: CAL-51
Assay: as above
Conditions: incubation time: 72 h
Experimental: as §1

SMILES | drug sensitivity score
Nc1ccccc1NC(=O)c1ccc(CNc2nccc(-c3cccnc3)n2)cc1 [Mocetinostat] | 5.94
COc1nc(N)nc2c1ncn2[C@@H]1O[C@H](CO)[C@@H](O)[C@@H]1O [Nelarabine] | 0
Cc1ccc(Nc2nccc(N(C)c3ccc4c(C)n(C)nc4c3)n2)cc1S(N)(=O)=O [Pazopanib] | 0
O=C(CCBr)N1CCN(C(=O)CCBr)CC1 [Pipobroman] | 0
c1cc(CN2CCCNCCNCCCNCC2)ccc1CN1CCCNCCNCCCNCC1 [Plerixafor] | 0
C[C@]12C=CC(=O)C=C1CC[C@@H]1[C@@H]2[C@@H](O)C[C@@]2(C)[C@H]1CC[C@]2(O)C(=O)CO [Prednisolone] | 0
CC[C@@]1(O)C(=O)OCc2c1cc1n(c2=O)Cc2cc3c(CN(C)C)c(O)ccc3nc2-1 [Topotecan] | 5.2

System: CAL-148
Assay: as above
Conditions: incubation time: 72 h
Experimental: as §1

SMILES | drug sensitivity score
Nc1ccccc1NC(=O)c1ccc(CNc2nccc(-c3cccnc3)n2)cc1 [Mocetinostat] | 8.31
COc1nc(N)nc2c1ncn2[C@@H]1O[C@H](CO)[C@@H](O)[C@@H]1O [Nelarabine] | 0
Cc1ccc(Nc2nccc(N(C)c3ccc4c(C)n(C)nc4c3)n2)cc1S(N)(=O)=O [Pazopanib] | 0
O=C(CCBr)N1CCN(C(=O)CCBr)CC1 [Pipobroman] | 0
c1cc(CN2CCCNCCNCCCNCC2)ccc1CN1CCCNCCNCCCNCC1 [Plerixafor] | 0
C[C@]12C=CC(=O)C=C1CC[C@@H]1[C@@H]2[C@@H](O)C[C@@]2(C)[C@H]1CC[C@]2(O)C(=O)CO [Prednisolone] | 0
CC[C@@]1(O)C(=O)OCc2c1cc1n(c2=O)Cc2cc3c(CN(C)C)c(O)ccc3nc2-1 [Topotecan] | 11.5

System: MDA-MB-453
Assay: as above
Conditions: incubation time: 72 h
Experimental: as §1

SMILES | drug sensitivity score
Nc1ccccc1NC(=O)c1ccc(CNc2nccc(-c3cccnc3)n2)cc1 [Mocetinostat] | 12.8
COc1nc(N)nc2c1ncn2[C@@H]1O[C@H](CO)[C@@H](O)[C@@H]1O [Nelarabine] | 0
Cc1ccc(Nc2nccc(N(C)c3ccc4c(C)n(C)nc4c3)n2)cc1S(N)(=O)=O [Pazopanib] | 6.67
O=C(CCBr)N1CCN(C(=O)CCBr)CC1 [Pipobroman] | 2.49
c1cc(CN2CCCNCCNCCCNCC2)ccc1CN1CCCNCCNCCCNCC1 [Plerixafor] | 0
C[C@]12C=CC(=O)C=C1CC[C@@H]1[C@@H]2[C@@H](O)C[C@@]2(C)[C@H]1CC[C@]2(O)C(=O)CO [Prednisolone] | 4.2
CC[C@@]1(O)C(=O)OCc2c1cc1n(c2=O)Cc2cc3c(CN(C)C)c(O)ccc3nc2-1 [Topotecan] | 3.26

System: HCC1599
Assay: as above
Conditions: incubation time: 72 h
Experimental: as §1

SMILES | drug sensitivity score
Nc1ccccc1NC(=O)c1ccc(CNc2nccc(-c3cccnc3)n2)cc1 [Mocetinostat] | 10.1
COc1nc(N)nc2c1ncn2[C@@H]1O[C@H](CO)[C@@H](O)[C@@H]1O [Nelarabine] | 0
Cc1ccc(Nc2nccc(N(C)c3ccc4c(C)n(C)nc4c3)n2)cc1S(N)(=O)=O [Pazopanib] | 0
O=C(CCBr)N1CCN(C(=O)CCBr)CC1 [Pipobroman] | 0
c1cc(CN2CCCNCCNCCCNCC2)ccc1CN1CCCNCCNCCCNCC1 [Plerixafor] | 0
C[C@]12C=CC(=O)C=C1CC[C@@H]1[C@@H]2[C@@H](O)C[C@@]2(C)[C@H]1CC[C@]2(O)C(=O)CO [Prednisolone] | 0
CC[C@@]1(O)C(=O)OCc2c1cc1n(c2=O)Cc2cc3c(CN(C)C)c(O)ccc3nc2-1 [Topotecan] | 3.96

System: BT-549
Assay: normalised viability (% of control), CellTiter-Blue; higher = more viable cells (about 100 = DMSO control)
Conditions: 1 nM; incubation time: 72 h
In short: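 384-well plates were pre-loaded with compound in 5 µl medium before 20 µl of breast cancer cell suspension was seeded. Following 72 h incubation, 2.5 µl CellTiter-Blue reagent was added for 2 h at 37 °C. Fluorescence was read at 560/590 nm and plates were normalised to vehicle (100) and a positive kill control (0), checked by Z'-factor. Normalised viability is reported at a single listed concentration of the series.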

SMILES | normalised viability
CC[C@@]1(O)C(=O)OCc2c1cc1n(c2=O)Cc2cc3c(CN(C)C)c(O)ccc3nc2-1 [Topotecan] | 85.9%

Same assay, conditions: 2.5 nM; incubation time: 72 h

SMILES | normalised viability
c1cc(CN2CCCNCCNCCCNCC2)ccc1CN1CCCNCCNCCCNCC1 [Plerixafor] | 92.7%

Same assay, conditions: 10 nM; incubation time: 72 h

SMILES | normalised viability
Nc1ccccc1NC(=O)c1ccc(CNc2nccc(-c3cccnc3)n2)cc1 [Mocetinostat] | 91%
COc1nc(N)nc2c1ncn2[C@@H]1O[C@H](CO)[C@@H](O)[C@@H]1O [Nelarabine] | 95.2% and 85.3%
Cc1ccc(Nc2nccc(N(C)c3ccc4c(C)n(C)nc4c3)n2)cc1S(N)(=O)=O [Pazopanib] | 86.8%
O=C(CCBr)N1CCN(C(=O)CCBr)CC1 [Pipobroman] | 87.1%
C[C@]12C=CC(=O)C=C1CC[C@@H]1[C@@H]2[C@@H](O)C[C@@]2(C)[C@H]1CC[C@]2(O)C(=O)CO [Prednisolone] | 111%

Same assay, conditions: 100 nM; incubation time: 72 h

SMILES | normalised viability
CC[C@@]1(O)C(=O)OCc2c1cc1n(c2=O)Cc2cc3c(CN(C)C)c(O)ccc3nc2-1 [Topotecan] | 75.3%

Same assay, conditions: 250 nM; incubation time: 72 h

SMILES | normalised viability
c1cc(CN2CCCNCCNCCCNCC2)ccc1CN1CCCNCCNCCCNCC1 [Plerixafor] | 95.9%

Same assay, conditions: 1000 nM; incubation time: 72 h

SMILES | normalised viability
Nc1ccccc1NC(=O)c1ccc(CNc2nccc(-c3cccnc3)n2)cc1 [Mocetinostat] | 67.1%
